Here are results for six compounds from ChEMBL document CHEMBL5038576 (J Med Chem, 2021).

Experiment [1] has as its target T1, Adenosine receptor A2b (Homo sapiens) (UniProt P29275).
T1 sequence (whole entry): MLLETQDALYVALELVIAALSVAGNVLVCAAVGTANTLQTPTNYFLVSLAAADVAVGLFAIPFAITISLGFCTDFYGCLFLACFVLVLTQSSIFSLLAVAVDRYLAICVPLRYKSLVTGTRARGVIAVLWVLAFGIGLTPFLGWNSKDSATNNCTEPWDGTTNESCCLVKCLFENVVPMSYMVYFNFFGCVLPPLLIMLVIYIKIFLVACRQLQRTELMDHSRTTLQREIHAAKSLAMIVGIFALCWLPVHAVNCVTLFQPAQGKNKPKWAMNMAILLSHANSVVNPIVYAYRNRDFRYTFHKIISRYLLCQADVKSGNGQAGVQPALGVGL
Kind of experiment: Displacement of [3H]PSB-603 from human A2B receptor expressed in CHO cell membranes at 1 uM measured after 3 hrs by radioligand binding assay relative to control. The conditions noted are these: Membrane. Background: Displacement assays read how much labelled ligand stays bound in the presence of the test substance.

In a further experiment the target is T2, Adenosine receptor A1 (Homo sapiens, UniProt P30542).
T2 sequence (P30542 whole entry): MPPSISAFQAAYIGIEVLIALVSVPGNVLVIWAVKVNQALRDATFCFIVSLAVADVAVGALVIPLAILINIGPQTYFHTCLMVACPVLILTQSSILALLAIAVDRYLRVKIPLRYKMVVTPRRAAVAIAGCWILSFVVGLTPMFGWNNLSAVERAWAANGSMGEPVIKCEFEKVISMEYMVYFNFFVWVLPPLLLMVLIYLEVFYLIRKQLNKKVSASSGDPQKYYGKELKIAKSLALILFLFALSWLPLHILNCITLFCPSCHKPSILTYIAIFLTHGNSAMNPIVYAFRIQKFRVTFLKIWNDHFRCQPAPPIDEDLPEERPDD

The target of a further experiment is T3, Adenosine receptor A3 (Homo sapiens, UniProt P0DMS8).
T3 sequence (P0DMS8 whole entry): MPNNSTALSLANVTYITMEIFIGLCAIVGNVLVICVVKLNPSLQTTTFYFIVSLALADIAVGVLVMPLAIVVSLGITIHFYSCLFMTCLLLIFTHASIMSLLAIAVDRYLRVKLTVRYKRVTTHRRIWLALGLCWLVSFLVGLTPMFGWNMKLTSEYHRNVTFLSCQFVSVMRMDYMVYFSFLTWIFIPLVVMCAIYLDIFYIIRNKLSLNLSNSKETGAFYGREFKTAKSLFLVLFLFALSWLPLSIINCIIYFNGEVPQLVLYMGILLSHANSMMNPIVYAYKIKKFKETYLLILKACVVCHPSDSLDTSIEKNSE

Experiment [2] addresses T4, Adenosine receptor A2a (Homo sapiens, UniProt P29274).
Experiment [3] concerns the target T4, Adenosine receptor A2a. This is another data set of the same source.
Description: Displacement of [3H]ZM241385 from human A2A receptor expressed in HEK293 cell membranes measured after 3 hrs by radioligand binding assay
The target of a further experiment is T5, Adenosine receptor A2b (Homo sapiens, UniProt P29275).
T5 sequence (P29275 whole entry): T1 sequence (whole entry)

Experiment [4] concerns the target T6, Adenosine receptor A1 (Homo sapiens) (UniProt P30542).
T6 sequence (whole entry): T2 sequence (P30542 whole entry)
Kind of experiment: Displacement of [3H]DPCPX from human A1 receptor expressed in CHO cell membranes at 10 uM measured after 3 hrs by radioligand binding assay relative to control. The conditions noted are these: Membrane.

Experiment [5] concerns the target T4, Adenosine receptor A2a. Kind of experiment: Displacement of [3H]ZM241385 from human A2A receptor expressed in HEK293 cell membranes at 10 uM measured after 3 hrs by radioligand binding assay relative to control. To be noted: Membrane.
In experiment [6] the target is T7, Adenosine receptor A3 (Homo sapiens) (UniProt P0DMS8).
T7 sequence (whole entry): T3 sequence (P0DMS8 whole entry)
Put plainly: Displacement of [3H]PSB-11 from human A3 receptor expressed in CHO cell membranes at 10 uM measured after 3 hrs by radioligand binding assay relative to control. The conditions noted are these: Membrane.

T4 sequence (P29274 whole entry): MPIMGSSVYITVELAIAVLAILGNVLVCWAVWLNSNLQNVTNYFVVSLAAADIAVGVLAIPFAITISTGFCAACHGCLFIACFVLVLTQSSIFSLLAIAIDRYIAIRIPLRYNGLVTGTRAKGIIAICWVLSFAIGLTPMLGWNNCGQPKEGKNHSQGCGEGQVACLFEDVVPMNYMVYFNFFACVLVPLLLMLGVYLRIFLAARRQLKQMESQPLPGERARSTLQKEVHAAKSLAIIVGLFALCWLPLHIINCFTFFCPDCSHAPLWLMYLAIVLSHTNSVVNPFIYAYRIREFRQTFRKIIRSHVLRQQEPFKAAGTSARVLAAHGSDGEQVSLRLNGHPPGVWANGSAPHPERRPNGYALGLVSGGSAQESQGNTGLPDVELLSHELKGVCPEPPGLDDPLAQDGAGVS

For orientation: Ki means the equilibrium dissociation constant of an inhibitor or competing ligand from its target. A low value points to tighter binding. As to `N#Cc1c(N)nc(SCc2ncc[nH]2)nc1-c1ccccc1`, the Activity in experiment [1] (filed as partial agonist) turned out to be 51%. Also, the Ki at Adenosine receptor A1 was 0.0851 µM; on Adenosine receptor A3, 0.347 µM.
By EC50 is commonly meant the concentration at which the effect is half-maximal. `N#Cc1c(SCc2ncc[nH]2)nc(N)nc1-c1ccccc1` showed a half-maximal effective concentration (EC50) on Adenosine receptor A2a [2] of 0.0447 µM. Also, the Ki at Adenosine receptor A2a [3] was 0.01 µM; at Adenosine receptor A1, 0.0692 µM. Moreover, the Activity in experiment [1] (filed as partial agonist) worked out at 50%.
For `N#Cc1c(-c2ccccc2)cc(N)nc1SCc1ncc[nH]1`, the Activity in [1] turned out to be 37%. Also, the Ki on Adenosine receptor A1 was 0.112 µM.
Consider `N#Cc1c(-c2ccccc2)cc(SCc2ncc[nH]2)nc1N`, for which the Ki at Adenosine receptor A1 was 0.417 µM; at Adenosine receptor A2b it was 0.372 µM.
In turn, `Nc1nc(SCc2ncc[nH]2)nc(-c2ccccc2)n1` showed a concentration giving a half-maximal response (EC50) on Adenosine receptor A2a [2] of 0.813 µM. Moreover, the results for the Ki on Adenosine receptor A2a [3] and at Adenosine receptor A1 were 0.562 µM and 0.288 µM, respectively. For the same compound, the Activity in experiment [1] was determined as 2%.
`Nc1cc(-c2ccccc2)cc(SCc2ncc[nH]2)n1`: the Activity in [4] is 12%; in experiment [1], -12%; at Adenosine receptor A2a [5] it was -17%; in experiment [6], 46%.
